# “Also recorded” adds a separate entry of the source.
# Legend:
# [1] = tested on: naive CD4+ T cells; assay: In vitro differentiation and proliferation induced by phenylalanine and isoleucine; assay type: cell-based, mouse; conditions: amino acid added directly to naive CD4+ T cell culture; for Th1 cell proliferation: CellTrace
# Description: In Vitro differentiation and proliferation induced by phenylalanine and isoleucine. Naive CD4^+ T cells were separated from the splenocytes of 8-month-old C57BL/6 female mice using the Naive CD4^+ T cell Isolation Kit (Stem Cell, #19765), and the cells were stained with CellTrace (Thermo Fisher, #C34557). A total of 1×10^5 cells/well in 0.2 mL of RPMI-1640 medium were plated in 96-well plates, and the culture medium was supplemented with cytokines or blocking antibodies. Th0: 10 ng/mL mIL-2; Th1:10 ng/mL mIL-2, 5000 ng/mL 11B11. Phenylalanine (final concentration, 2 mmol/L), isoleucine (final concentration, 2 mmol/L) and OM1 (final concentration, 100 μg/mL) were added into the indicated wells, respectively. After incubation at 37° C. in 5% CO2 for 5 days, cells were acquired on a BD Fortessa cytometer, and data were analyzed using FlowJo software.
# [2] = tested on: C57 mice; assay: Intraperitoneal injection of phenylalanine and isoleucine, blood Th1 cells by FACS; assay type: in vivo, mouse; conditions: WT mice, intraperitoneal injection 50 mg/kg for 4 days
# Description: Animals. Tg mice and co-housed WT mice (corresponding WT mice generated by mating Tg mice and C57 mice) were housed in the same cage after birth. WT mice (C57) were housed in separate cages to avoid cross-transfer of microbiota. All mice were kept in a 23° C. room with a 12-hour (h) light-dark cycle. Mice were randomly assigned to different groups before treatment. For time course analysis of Tg mice, male and female Tg mice were sacrificed at 2, 3, 5, 7 and 9 months of age. The mouse brain was collected and stained for immune cell analysis and cytokine analysis. Before the mice were sacrificed, feces were collected for gut microbiota analysis. For OM1 treatment, at the age of 6.5 months, based on 450 mg b.i.d. (twice a day) in the phase III trial, Tg mice were treated with 100 mg/kg OM1 by oral administration once a day for one month. Behavioral tests were performed to monitor cognitive activity after the last treatment. […] All mouse movements that occur in PhenoTyper (HomeCage) are recorded by a computerized tracking system, which calculates the time and number of entrances required to reach 80% of the performance standard (Noldus, Ethovision). […]
# Flow cytometry sample preparation and analysis. […] All samples were counted and adjusted to a density of 2-3×10^6/100 μL, labeled with a Live/Dead kit for 30 min, and then centrifuged at 500×g for 3 min at 4° C. […]
# [3] = tested on: 5×FAD transgenic (Tg) mice; assay: Flow cytometry of Th1 cells and M1 microglia in brain homogenate; assay type: in vivo, mouse; conditions: 6-month-old 5×FAD mice, 50 mg/kg intraperitoneal every day for one month, versus vehicle
# Description: Animals. […] Mice were randomly assigned to different groups before treatment. […] The mouse brain was collected and stained for immune cell analysis and cytokine analysis. […] For OM1 treatment, at the age of 6.5 months, based on 450 mg b.i.d. (twice a day) in the phase III trial, Tg mice were treated with 100 mg/kg OM1 by oral administration once a day for one month. […] The brains and feces of the mice were then used for different analyses.
# Flow cytometry sample preparation and analysis. Mice were anesthetized, blood samples were collected into EDTA-containing tubes, and red blood cells were removed using 1×red blood lysis buffer. Before tissue collection, the brains were perfused with ice-cold PBS to avoid sampling the circulating blood immune cells, and the brains were removed, chopped into pieces and dissected according to the introduction of the Adult Brain Dissociation Kit (Miltenyi, Cat No. 130-107-677) using the gentleMACS dissociator (Miltenyi Biotec). The brain homogenate was filtered through a 70-μm cell strainer and centrifuged at 300×g for 5 min at 4° C. The cell pellet was resuspended in cold PBS buffer and centrifuged again at 300×g for 5 min at 4° C. All samples were counted and adjusted to a density of 2-3×10^6/100 μL, labeled with a Live/Dead kit for 30 min, and then centrifuged at 500×g for 3 min at 4° C. The cells were resuspended in 100 μL PBS buffer, blocked with anti-CD16/32 (Biolegend, Cat No. 101320) for 10 min, and incubated with the antibody according to the manufacturers' protocols at 4° C. for 30 min. […]
# [4] = target: T1, SLC7A5 (Mus musculus, UniProt Q9Z127); assay: Uptake of 13C-labelled phenylalanine by naive CD4+ T cells; assay type: cell-based; conditions: 0.5 h incubation
# T1 construct: endogenous in cells; host or cells: naive CD4+ T cells from splenocytes of C57BL/6 mice (Th0 / IL-12-induced Th1)
# Description: Uptake of phenylalanine. Naive CD4^+ T cells were separated from the splenocytes of 8-month-old C57BL/6 female mice using the Naive CD4^+ T cell Isolation Kit (Stem Cell, Cat No. 19765) and were induced to Th1 differentiation by 20 ng/mL IL-12. After 3 days, a total of 5×10^5 cells/well Th1 cells and Th0 cells in 0.5 mL of RPMI-1640 medium were plated into 48-well plates. ^13C-labelled phenylalanine and 5 mM amino transporter inhibitor BCH were added into indicated wells. After 0.5 h, cells were collected and washed twice with ice-cold D-PBS. 50 μL deionized water was added and cells were lysed through freezing and thawing twice at −80° C. The cell lysate was centrifuged at 12000×g for 10 min and ^13C-labelled phenylalanine in the supernatant was analyzed by Mass spectrometry.
# [5] = target: LAT1 (Homo sapiens, UniProt Q01650); conditions: supplier description; cited from earlier work
# LAT1, sequence (Q01650 whole entry, species assumed): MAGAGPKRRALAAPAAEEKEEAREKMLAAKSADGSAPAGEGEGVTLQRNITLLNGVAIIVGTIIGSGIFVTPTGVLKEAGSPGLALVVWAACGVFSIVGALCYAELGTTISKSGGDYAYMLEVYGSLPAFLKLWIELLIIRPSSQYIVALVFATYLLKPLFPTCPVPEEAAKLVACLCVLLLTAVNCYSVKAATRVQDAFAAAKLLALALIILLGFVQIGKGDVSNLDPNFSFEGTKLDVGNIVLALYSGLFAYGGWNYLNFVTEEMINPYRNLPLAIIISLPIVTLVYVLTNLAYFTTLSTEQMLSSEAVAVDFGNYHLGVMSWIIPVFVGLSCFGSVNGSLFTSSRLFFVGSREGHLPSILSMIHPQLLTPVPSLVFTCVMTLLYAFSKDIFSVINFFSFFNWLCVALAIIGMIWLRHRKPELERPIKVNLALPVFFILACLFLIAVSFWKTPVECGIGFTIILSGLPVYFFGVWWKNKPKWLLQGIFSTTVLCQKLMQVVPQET
# LAT1, sequence (P08195 102-630 partner, species assumed): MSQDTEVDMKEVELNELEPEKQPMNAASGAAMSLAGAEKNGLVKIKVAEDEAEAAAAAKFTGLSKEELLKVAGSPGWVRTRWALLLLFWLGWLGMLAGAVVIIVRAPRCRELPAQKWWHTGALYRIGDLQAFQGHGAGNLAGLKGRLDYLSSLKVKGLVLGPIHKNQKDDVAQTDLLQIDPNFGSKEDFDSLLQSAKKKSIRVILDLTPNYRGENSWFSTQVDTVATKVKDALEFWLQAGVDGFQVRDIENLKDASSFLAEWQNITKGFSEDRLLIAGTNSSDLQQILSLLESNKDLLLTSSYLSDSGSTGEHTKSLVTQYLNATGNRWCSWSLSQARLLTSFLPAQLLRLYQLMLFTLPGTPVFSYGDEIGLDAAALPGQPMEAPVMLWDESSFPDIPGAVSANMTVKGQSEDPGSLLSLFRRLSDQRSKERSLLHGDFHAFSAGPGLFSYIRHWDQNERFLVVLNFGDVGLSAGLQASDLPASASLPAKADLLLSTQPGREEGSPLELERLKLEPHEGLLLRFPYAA
# T1 sequence (Q9Z127 whole entry): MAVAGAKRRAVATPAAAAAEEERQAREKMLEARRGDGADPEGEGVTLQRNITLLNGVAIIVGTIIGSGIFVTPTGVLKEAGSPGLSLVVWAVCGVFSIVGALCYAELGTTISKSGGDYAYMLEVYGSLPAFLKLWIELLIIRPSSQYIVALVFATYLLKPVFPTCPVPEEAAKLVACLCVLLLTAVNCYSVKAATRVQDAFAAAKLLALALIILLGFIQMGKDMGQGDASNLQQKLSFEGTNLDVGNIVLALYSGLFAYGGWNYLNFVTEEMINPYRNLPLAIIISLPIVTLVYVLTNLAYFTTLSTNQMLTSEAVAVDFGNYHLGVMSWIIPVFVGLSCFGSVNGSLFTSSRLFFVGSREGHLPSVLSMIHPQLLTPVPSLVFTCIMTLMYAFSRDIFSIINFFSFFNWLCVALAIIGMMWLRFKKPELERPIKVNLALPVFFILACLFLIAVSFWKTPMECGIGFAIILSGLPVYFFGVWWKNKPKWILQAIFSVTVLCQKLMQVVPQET
# T1 sequence (P10852 whole entry partner): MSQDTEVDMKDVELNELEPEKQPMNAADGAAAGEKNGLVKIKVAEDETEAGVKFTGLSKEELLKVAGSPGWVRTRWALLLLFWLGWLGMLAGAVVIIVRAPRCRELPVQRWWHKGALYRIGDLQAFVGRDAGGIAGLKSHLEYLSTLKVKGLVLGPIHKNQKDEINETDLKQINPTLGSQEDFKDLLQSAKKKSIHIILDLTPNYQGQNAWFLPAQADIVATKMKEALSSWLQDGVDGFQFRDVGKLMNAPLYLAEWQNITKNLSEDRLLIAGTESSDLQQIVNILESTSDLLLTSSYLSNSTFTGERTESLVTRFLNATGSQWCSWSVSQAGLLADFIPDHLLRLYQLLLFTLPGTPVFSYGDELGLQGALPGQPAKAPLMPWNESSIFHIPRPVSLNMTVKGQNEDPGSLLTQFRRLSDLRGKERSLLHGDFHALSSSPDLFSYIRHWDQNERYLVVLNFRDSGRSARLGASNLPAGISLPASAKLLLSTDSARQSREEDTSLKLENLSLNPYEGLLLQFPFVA
uptake of 13C-labelled phenylalanine by CD4+ T cells [4],SMILES,Th0 cell differentiation into Th1 cells [1],Th1 cell proliferation [1],Th1 cell count in the blood [2],proportion of pro-inflammatory Th1 cells in the mouse brain ([3]; 50 mg/kg),"proportion of pro-inflammatory Th1 cells in the mouse brain ([3]; listed as JPH203, 50 mg/kg)",LAT1 selectivity [5]
,CC[C@H](C)[C@H](N)C(=O)O [isoleucine],increased,increased,increased significantly,,,
blocked,Nc1cc(COc2c(Cl)cc(C[C@H](N)C(=O)O)cc2Cl)c2oc(-c3ccccc3)nc2c1 [JPH 203],,,,significantly reduces the proportion of Th1 cells in the mouse brain,effectively inhibits the proportion of Th1 cells in the brain; also recorded: significantly downregulated the proportion of pro-inflammatory Th1 cells in the mouse brain,selectively inhibits LAT1
,N[C@@H](Cc1ccccc1)C(=O)O [phenylalanine],increased,increased,increased significantly,,,

# — patent publication US20220273598A1, “METHOD FOR TREATING ALZHEIMER'S DISEASE BY INHIBITING UPTAKE OF AMINO ACIDS BY T CELLS” (SHANGHAI GREEN VALLEY PHARMACEUTICAL CO., LTD., priority 2019, published 2022)
